Laboratory results as given in patent US4180655A, “Nitrosourea derivatives” (Suami; Tetsuo, priority 1974, dated 1979).
Read-outs that look alike come from different tables or passages of the source.

Tested on: Leukemia L1210 cells
Test: Chemotherapeutic effect of nitrosourea derivatives on leukemia L1210 in mice
Type: in vivo, mice (BDF1/BDF)
Set-up: Volume of ascites, Treated: unit not given here
Description: Chemotherapeutic effect of a variety of the nitrosourea derivatives of the formula I according to this invention on leukemia L1210 in mice were investigated by the following method and materials.
A--BDF1 mice (about 6 week-aged; body weight: 22±1 g); each experimental group was composed of 2 male mice.
B--BDF1 mice (about 7 week-aged; body weight: 21±2 g); each experimental group was composed of 3 male mice.
C--BDF mice (about 7 week-aged; body weight: 22±2 g); each experimental group was composed of 2 male mice.
D--BDF mice (about 6 week-aged; body weight: 21±2 g); each experimental group was composed of 3 male mice.
E--BDF1 mice (about six week-aged; body weight 20±1 g); each experimental group was composed of 3 female mice.
F--BDF1 mice (about six week-aged; body weight 21±1 g); each experimental group was composed of 3 male mice.
A--Leukemia L1210 cells (2.1×10^6 cells/ 0.05 ml/mouse) were intraperitoneally inoculated.
B--Leukemia L1210 cells (1.9×10^6 cells/0.05 ml/mouse) were intraperitoneally inoculated.
C--Leukemia L1210 cells (1.2×10^6 cells/0.05 ml/mouse) were intraperitoneally inoculated.
A--The test compound was dissolved in a physiological saline solution and administered intraperitoneally at a volume of 0.1 ml/mouse. The administration was made at once/day, from 24 hours after i.p. inoculation of L1210 cells, for 3 days. The effect of test compound was assessed by mean survival days of mice, percent increase in life-span, anatomical findings involving the volume of ascites.
B--The same as that used in A except that the drug administration was continued for 5 days.
C--The same as that used in A except that the test compound was suspended in 0.5% CMC solution and that the drug administration was continued for 5 days.
D--The same as that used in A except that the test compound was dissolved in distilled water for injection purposes.
The percentage increase in life-span (ILS) was calculated as follows:
Percentage increase in life-span (ILS)=T-C/C×100
T: The mean survival days of the treated animals.
C: The mean survival days of the untreated control.

[1] = 100 mg/kg i.p. once/day for 3 days (procedure D, distilled water)
[2] = 200 mg/kg i.p. once/day for 3 days (procedure D, distilled water)
[3] = 400 mg/kg i.p. once/day for 3 days (procedure D, distilled water)
[4] = 50 mg/kg i.p. once/day for 3 days (procedure A, saline)
[5] = 100 mg/kg i.p. once/day for 3 days (procedure A, saline)
[6] = 150 mg/kg i.p. once/day for 3 days (procedure A, saline)
[7] = 200 mg/kg i.p. once/day for 3 days (procedure A, saline)
[8] = 1 mg/kg i.p. once/day for 3 days (procedure A, saline)
[9] = 2 mg/kg i.p. once/day for 3 days (procedure A, saline)
[10] = 4 mg/kg i.p. once/day for 3 days (procedure A, saline)
[11] = 8 mg/kg i.p. once/day for 3 days (procedure A, saline)
[12] = 10 mg/kg i.p. once/day for 3 days (procedure A, saline)
[13] = Mus musculus, L1210, ip, 72 h, 1 mg/kg i.p. once/day for 3 days (procedure A, saline), read-out: Percentage increase in life-span (ILS)
[14] = Mus musculus, L1210, ip, 72 h, 2 mg/kg i.p. once/day for 3 days (procedure A, saline), read-out: Percentage increase in life-span (ILS)
[15] = Mus musculus, L1210, ip, 72 h, 4 mg/kg i.p. once/day for 3 days (procedure A, saline), read-out: Percentage increase in life-span (ILS)
[16] = Mus musculus, L1210, ip, 72 h, 8 mg/kg i.p. once/day for 3 days (procedure A, saline), read-out: Percentage increase in life-span (ILS)
[17] = Mus musculus, L1210, ip, 72 h, 10 mg/kg i.p. once/day for 3 days (procedure A, saline), read-out: Percentage increase in life-span (ILS)
[18] = 16 mg/kg i.p. once/day for 3 days (procedure A, saline)
[19] = Mus musculus, L1210, ip, 72 h, 16 mg/kg i.p. once/day for 3 days (procedure A, saline), read-out: Percentage increase in life-span (ILS)
[20] = 200 mg/kg i.p. once/day for 5 days (procedure B, saline)
[21] = 300 mg/kg i.p. once/day for 5 days (procedure B, saline)
[22] = Mus musculus, L1210, ip, 120 h, read-out: Percentage increase in life-span (ILS)
[23] = 0.5 mg/kg i.p. once/day for 3 days (procedure A, saline)
[24] = 6 mg/kg i.p. once/day for 3 days (procedure A, saline)
[25] = 20 mg/kg i.p. once/day for 3 days (procedure A, saline)
[26] = 30 mg/kg i.p. once/day for 3 days (procedure A, saline)

## CN(N=O)C(=O)N[C@@H](CO)[C@@H](O)[C@H](O)[C@H](O)CO [Compound 12, N-carbamoyl-N'-methyl-N'-nitroso-D-glucosaminol, reference compound]
[1]
  Survival days, Treated (mean): 13.9 days
  Volume of ascites, Treated: 3.0
[2]
  Survival days, Treated (mean): 15.0 days
  Volume of ascites, Treated: 4.0
[3]
  Survival days, Treated (mean): 13.4 days
  Volume of ascites, Treated: 3.4
Mus musculus, L1210, ip, 72 h, 100 mg/kg i.p. once/day for 3 days (procedure D, distilled water), read-out: Percentage increase in life-span (ILS)
  ILS at 100 mg/kg: 30%
Mus musculus, L1210, ip, 72 h, 200 mg/kg i.p. once/day for 3 days (procedure D, distilled water), read-out: Percentage increase in life-span (ILS)
  ILS at 200 mg/kg: 40%
Mus musculus, L1210, ip, 72 h, 400 mg/kg i.p. once/day for 3 days (procedure D, distilled water), read-out: Percentage increase in life-span (ILS)
  ILS at 400 mg/kg: 25%

## CN(N=O)C(=O)N[C@@H]1O[C@H](CO)[C@@H](O)[C@H](O)[C@H]1O [Compound 11, 1-(β-D-glucopyranosyl)-3-methyl-3-nitrosourea, reference compound]
[4]
  Survival days, Treated (mean): 12.0 days
  Volume of ascites, Treated: 2.8
[5]
  Survival days, Treated (mean): 13.9 days
  Volume of ascites, Treated: 4.6
[6]
  Survival days, Treated (mean): 14.1 days
  Volume of ascites, Treated: 1.9
[7]
  Survival days, Treated (mean): 16.6 days
  Volume of ascites, Treated: 1.4
Mus musculus, L1210, ip, 72 h, 50 mg/kg i.p. once/day for 3 days (procedure A, saline), read-out: Percentage increase in life-span (ILS)
  ILS at 50 mg/kg: 55.6%
Mus musculus, L1210, ip, 72 h, 100 mg/kg i.p. once/day for 3 days (procedure A, saline), read-out: Percentage increase in life-span (ILS)
  ILS at 100 mg/kg: 80.7%
Mus musculus, L1210, ip, 72 h, 150 mg/kg i.p. once/day for 3 days (procedure A, saline), read-out: Percentage increase in life-span (ILS)
  ILS at 150 mg/kg: 83.4%
Mus musculus, L1210, ip, 72 h, 200 mg/kg i.p. once/day for 3 days (procedure A, saline), read-out: Percentage increase in life-span (ILS)
  ILS at 200 mg/kg: 108%

## O=NN(CCCl)C(=O)N[C@@H]1O[C@H](CO)[C@H](O)[C@H](O)[C@H]1O [Compound 7, 1-(2-chloroethyl)-3-(β-D-galactopyranosyl)-1-nitrosourea]
[8]
  Survival days, Treated (mean): 18.5 days
  Volume of ascites, Treated: 4.6
[9]
  Survival days, Treated (mean): 14.7 days
  Volume of ascites, Treated: 0.8
[10]
  Survival days, Treated (mean): > 47.0 days
  Volume of ascites, Treated: 0
[11]
  Survival days, Treated (mean): > 47.0 days
  Volume of ascites, Treated: 0
[12]
  Survival days, Treated (mean): 18.7 days
  Volume of ascites, Treated: 0
[13]
  ILS at 1 mg/kg: 98.9%
[14]
  ILS at 2 mg/kg: 58.1%
[15]
  ILS at 4 mg/kg: > 405%
[16]
  ILS at 8 mg/kg: > 405%
[17]
  ILS at 10 mg/kg: 101%

## O=NN(CCCl)C(=O)N[C@@H](CO)[C@@H](O)[C@H](O)[C@H](O)CO [Compound 9, N-carbamoyl-N'-(2-chloroethyl)-N'-nitroso-D-glucosaminol]
[11]
  Survival days, Treated (mean): 18.0 days
  Volume of ascites, Treated: 0
[18]
  Survival days, Treated (mean): > 53.7 days
  Volume of ascites, Treated: 0
[16]
  ILS at 8 mg/kg: 68.2%
[19]
  ILS at 16 mg/kg: > 402%

## CO[C@@H]1O[C@H](C)[C@@H](O)[C@H](O)[C@H]1NC(=O)N(C)N=O [Compound 6, Methyl 2,6-dideoxy-2-(N'-methyl-N-nitrosoureido)-βD-glucopyranoside]
[20]
  Survival days, Treated (mean): 15.1 days
  Volume of ascites, Treated: 2.0
[21]
  Survival days, Treated (mean): 13.0 days
  Volume of ascites, Treated: 0.3
[22]
  ILS at 200 mg/kg: 77.6%
  ILS at 300 mg/kg: 52.9%

## O=NN(CCCl)C(=O)N[C@@H]1O[C@H](CO)[C@@H](O)[C@H](O)[C@@H]1O [Compound 2, 1-(2-chloroethyl)-3-(β-D-mannopyranosyl)-1-nitrosourea]
[23]
  Survival days, Treated (mean): 13.0 days
  Volume of ascites, Treated: 3.0
[8]
  Survival days, Treated (mean): 13.7 days
  Volume of ascites, Treated: 2.3
[9]
  Survival days, Treated (mean): 14.7 days
  Volume of ascites, Treated: 1.2
[10]
  Survival days, Treated (mean): 15.0 days
  Volume of ascites, Treated: 1.2
[11]
  Survival days, Treated (mean): 18.3 days
  Volume of ascites, Treated: 0
Mus musculus, L1210, ip, 72 h, 0.5 mg/kg i.p. once/day for 3 days (procedure A, saline), read-out: Percentage increase in life-span (ILS)
  ILS at 0.5 mg/kg: 44.4%
[13]
  ILS at 1 mg/kg: 51.9%
[14]
  ILS at 2 mg/kg: 63%
[15]
  ILS at 4 mg/kg: 66.7%
[16]
  ILS at 8 mg/kg: 103%

## O=NN(CCCl)C(=O)N[C@H]1[C@H](O)[C@@H](O)[C@H](O)[C@@H](O)[C@@H]1O [Compound 5, 1-(2-chloroethyl)-1-nitroso-3-(1N,3,5/2,4,6-pentahydroxycyclohexyl)urea]
[8]
  Survival days, Treated (mean): 12.0 days
  Volume of ascites, Treated: 4.5
[9]
  Survival days, Treated (mean): 12.5 days
  Volume of ascites, Treated: 4.0
[10]
  Survival days, Treated (mean): 13.0 days
  Volume of ascites, Treated: 2.8
[24]
  Survival days, Treated (mean): 14.0 days
  Volume of ascites, Treated: 2.0
[11]
  Survival days, Treated (mean): 16.0 days
  Volume of ascites, Treated: 2.5
[12]
  Survival days, Treated (mean): 15.5 days
  Volume of ascites, Treated: 0
[25]
  Survival days, Treated (mean): > 61.1 days
  Volume of ascites, Treated: 0
[26]
  Survival days, Treated (mean): 11.6 days
  Volume of ascites, Treated: 0
[13]
  ILS at 1 mg/kg: 23.7%
[14]
  ILS at 2 mg/kg: 28.9%
[15]
  ILS at 4 mg/kg: 34%
Mus musculus, L1210, ip, 72 h, 6 mg/kg i.p. once/day for 3 days (procedure A, saline), read-out: Percentage increase in life-span (ILS)
  ILS at 6 mg/kg: 44.3%
[16]
  ILS at 8 mg/kg: 64.9%
[17]
  ILS at 10 mg/kg: 59.8%
Mus musculus, L1210, ip, 72 h, 20 mg/kg i.p. once/day for 3 days (procedure A, saline), read-out: Percentage increase in life-span (ILS)
  ILS at 20 mg/kg: > 530%
Mus musculus, L1210, ip, 72 h, 30 mg/kg i.p. once/day for 3 days (procedure A, saline), read-out: Percentage increase in life-span (ILS)
  ILS at 30 mg/kg: 19.6%

## O=NN(CCCl)C(=O)N[C@H]1[C@H](O)CCC[C@@H]1O [Compound 4, 1-(2-chloroethyl)-3-(1,3/2N-dihydroxycyclohexyl)-1-nitrosourea]
[9]
  Survival days, Treated (mean): 22.0 days
  Volume of ascites, Treated: 0.8
[10]
  Survival days, Treated (mean): > 60.0 days
  Volume of ascites, Treated: 0
[11]
  Survival days, Treated (mean): > 59.3 days
  Volume of ascites, Treated: 0
[18]
  Survival days, Treated (mean): 13.0 days
  Volume of ascites, Treated: 0
[14]
  ILS at 2 mg/kg: 114%
[15]
  ILS at 4 mg/kg: > 482%
[16]
  ILS at 8 mg/kg: > 476%
[19]
  ILS at 16 mg/kg: 26.2%
